Measured values reported in US5589373A, “Thermostable alkaline metalloprotease produced by a hyphomonas and preparation thereof” (priority 1995, dated 1996).
Entries after “also recorded” stand apart in the source; their conditions may differ. Read-outs that look alike come from different tables or passages of the source.

Experiments:
[1] = system: H. jannaschiana extracellular protease; experiment: Effect of amino acids, casamino acids or (NH4)2SO4 on cell-free protease suspension (azocasein assay); assay type: biochemical, Hyphomonas jannaschiana VP3; design: Enzyme activity (%) in cell free supernatant: concentration or dose not given beside the values; conditions: for Enzyme activity (%) in cell free supernatant: cell-free protease suspension, 10 minute incubation, same additions, control = 100
Protocol: (§1) Samples of the cell culture supernatants, the toluenized cells, and the cell lysates were each tested for protease activity using an azocasein assay, such as described by Long et al., J. Gen. Microbiol. 127:193-199 (1981). One unit of enzyme activity was considered equivalent to an increased absorbance of 0.1 units at a wavelength of 440 nm after a 30 minute incubation at 42° C.
In the alternative, after allowing protease synthesis and export to proceed for 2.5 hours, the cells were removed by centrifugation, and the supernatant was passed through a 0.22 μm filter. The cell-free protease suspension was then treated, as described above, with single amino acids, casamino acids, or (NH4)2 SO4. Then, enzyme activity was determined following a 10 minute incubation period.

[2] = system: actively growing culture of H. jannaschiana; experiment: Quinacrine on an actively growing culture (optical density and extracellular enzyme activity); assay type: cell-based, Hyphomonas jannaschiana; conditions: 0.025 mM quinacrine
Protocol: (§2) Thus, protease export was examined in the presence of quinacrine, a signal peptidase inhibitor. Protease export in the presence of quinacrine was examined using two approaches. An actively growing culture of H. jannaschiana was monitored with respect to both optical density at 550 nm and extracellular enzyme activity in the presence of 0.025 mM quinacrine. In order to eliminate the effect of quinacrine on H. jannaschiana growth, cells were initially propagated to stationary phase, and subsequently maintained in the non-proliferating state by 10-fold concentration in fresh media which was supplemented with 0.025 mM quinacrine.

[3] = system: functional extracellular protease; experiment: Quinacrine on functional extracellular protease activity; assay type: biochemical, Hyphomonas jannaschiana
[4] = system: H. jannaschiana stationary phase cells; experiment: Inhibition of protease export by quinacrine in non-proliferating stationary phase cells; assay type: cell-based; conditions: Hyphomonas jannaschiana; for activity at 25 µM: 0.025 mM quinacrine, read-out: Enzyme activity relative to untreated control
Protocol: as §2

[5] = system: H. jannaschiana stationary phase cells; experiment: Repression of exoprotease synthesis in stationary phase cells in growth media (azocasein assay); assay type: cell-based, Hyphomonas jannaschiana VP3; conditions: for activity / activity at 100000 µM: Hyphomonas jannaschiana, read-out: Enzyme activity (%) in growth media
Protocol: as §1
The stationary phase cells were resuspended in a one-tenth volume of MB, then incubated for 30 minutes at 37° C. Exoprotease activity was determined at hourly intervals following introduction of single amino acids at a final concentrations of 0.1% (v/v) o The assay was conducted over a period of 3 hours.
In a similar manner, protease activity was determined following the introduction of 100 mM (NH4)2 SO4 (ammonium sulfate) or 1% casamino acids to the growth medium.

[6] = system: H. jannaschiana exoprotease; experiment: Chemical inhibition of protease activity in filtered culture supernatant; assay type: biochemical, Hyphomonas jannaschiana VP3; conditions: for exoprotease activity in additional assays, data not shown (in words): concentration not given; for protease activity after exposure to inhibitor (in words): 5 mM o-phenanthroline, 60 mM PMSF, 100 mM EDTA, 80 mM EGTA
Protocol: as §1
The effect of various protease inhibitors on the production of H. jannaschiana exoprotease was tested by measuring protease activity following the incubation of the cells with each inhibitor. Stationary phase cells, grown in MB, were pelleted and resuspended in fresh media at one-tenth of the original culture volume. The cell suspension was incubated at 37° C. for 2.5 hours to permit synthesis and export of exoprotease into the culture supernatant. Then the cells were removed by centrifugation and the supernatant was sterilized by filtration through a 0.22 μm filter.
Protease activity was measured after exposure to each inhibitor at 25° C. for 15 minutes. The inhibitors were added at the following final concentrations: 5 mM o-phenanthroline, 60 mM […] (PMSF), 10 mM and 25 mM p-chloromercuribenzoic acid (pCMB), 100 mM EDTA, 80 mM ethylene glycol bis(beta-amino-ethylether)N,N,N',N'-tetraacetic acid (EGTA).
Each bar represents treatment of the exoprotease with the following: 1=untreated exoprotease; 2=o-phenan-throline; 3=o-phenanthroline and ZnCl; 4=ZnCl; 5=EGTA; 6=EGTA and CaCl; 7=CaCl; 8=EDTA; 9=EDTA and ZnCl; 10=EDTA and CaCl; 11=pCMB (10 mM, final conc.); 12=pCMB (25 mM, final conc.); and 13=PMSF. The enzyme activity was expressed as a percentage of the activity measured in the untreated control.

[7] = system: H. jannaschiana exoprotease; experiment: Recovery of chemically inhibited protease activity by Zn2+ and Ca2+; assay type: biochemical, Hyphomonas jannaschiana VP3; conditions: for restoration of activity to EDTA-inactivated enzyme: 100 mM EDTA, ZnCl2 or CaCl2, 25° C.; for effect of additional ions on activity of the native protease: no inhibitor
Protocol: The ability of the divalent cations Zn^2+ and Ca^2+ to restore enzyme activity to inactivated exoprotease was examined by introducing either 5 mM ZnCl2 or 100 mM CaCl2 at a 1:1 molar ratio of ion to inhibitor to the preparations described in Example 4. Following incubation at 25° C. for 15 minutes, protease activity was assayed.

[8] = Properties of the purified thermostable alkaline metalloprotease (pH and temperature optimum, pH stability, pI); design: species or system Hyphomonas jannaschiana
[9] = Thermal stability of H. jannaschiana exoprotease (azocasein assay); assay type: physicochemical, Hyphomonas jannaschiana; conditions: for enzyme activity remaining after incubation at 75° C. for 30 minutes: filtered stationary phase culture supernatant, pH 9
Protocol: Filtered supernatant containing Hyphomonas jannaschiana exoprotease was maintained at 75° C. and 100° C. for various periods of time. Then, the enzyme was allowed to recalibrate to 25° C., and subsequently assayed for protease activity using the azocasein assay.

[10] = stationary phase cells in one-tenth volume MB, 37° C., single amino acids 0.1% (v/v), control = 100
[11] = stationary phase cells in one-tenth volume MB, 37° C., single amino acids 0.1% (v/v), 100 mM (NH4)2SO4 or 1% casamino acids, control = 100
[12] = listed as alkaline exoprotease produced by H. jannaschiana

In the case of `N[C@@H](Cc1c[nH]c2ccccc12)C(=O)O` [tryptophan], the “Enzyme activity (%) in cell free supernatant” value [1] is reported as 56%.

For `CCN(CC)CCCC(C)Nc1c2ccc(Cl)cc2nc2ccc(OC)cc12` (centres unmarked) [quinacrine], the “cell density and exoprotease activity after an additional 6 hour growth period (in words)” value [2] was “returned to normal levels”, the inhibition of growth at 25 µM ([2]; Hyphomonas jannaschiana, 7 h, seven hours after treatment, OD 550 nm, read-out: reduction of optical density of the culture vs untreated cells) was 48% and the inhibition at 25 µM ([2]; Hyphomonas jannaschiana, 7 h, seven hours after treatment, read-out: exoprotease activity diminished vs untreated cells) was 73%. The “effect on functional extracellular protease activity (in words)” value [3] was “no affect”, the activity at 25 µM ([4]; 0.5 h, time 30 min) was 100% and the activity at 25 µM ([4]; 40 min, time 40 min) was 33%. For the same molecule, the inhibition at 25 µM ([4]; 40 min, 40 minutes after the addition of quinacrine, read-out: reduction in exported enzyme) was 67%, the activity at 25 µM ([4]; 1 h, time 60 min) was 50% and the activity at 25 µM ([4]; 1.5 h, time 90 min) was 78%. For the same molecule, the activity at 25 µM ([4]; 2 h, time 120 min) was 82% and the activity at 25 µM ([4]; 3 h, time 180 min) was 90%.

In the case of `N[C@@H](Cc1c[nH]cn1)C(=O)O` [histidine], the “Enzyme activity (%) in cell free supernatant” value [1] is reported as 83% and the activity [5, 10] is reported as 87%.

For `NC(=O)CC[C@H](N)C(=O)O` [glutamine], the “Enzyme activity (%) in cell free supernatant” value [1] was 52%.

In the case of `OCCS` [mercaptoethanol], the “exoprotease activity in additional assays, data not shown (in words)” value [6] is reported as “abolished”.

With `C[C@H](N)C(=O)O` [alanine] the “Enzyme activity (%) in cell free supernatant” value [1] was 56%.

In the case of `O=C(O)[C@@H]1CCCN1` [proline], the “Enzyme activity (%) in cell free supernatant” value [1] is reported as 93% and the activity at 100000 µM [5, 11] is reported as 108%.

With `N[C@@H](CO)C(=O)O` [serine] the “Enzyme activity (%) in cell free supernatant” value [1] was 64% and the activity [5, 10] was 79%.

In the case of `O=C(O)CN(CCOCCOCCN(CC(=O)O)CC(=O)O)CC(=O)O` [EGTA, ethylene glycol bis(beta-amino-ethylether)N,N,N',N'-tetraacetic acid], the “protease activity after exposure to inhibitor (in words)” value ([6]; 25° C., 15 minutes) is reported as “totally inhibited”.

With `c1cnc2c(c1)ccc1cccnc12` [o-phenanthroline] the “protease activity after exposure to inhibitor (in words)” value ([6]; 25° C., 15 minutes) was “totally inhibited”.

With `O=S(=O)(F)Cc1ccccc1` [PMSF, phenylmethyl sulfonamide fluoride] the “protease activity after exposure to inhibitor (in words)” value ([6]; 25° C., 15 minutes) was “unaffected; also recorded: not affected”.

In the case of `[Cl-].[Cl-].[Zn+2]` [Zn^2+, ZnCl2], the “restoration of activity to o-phenanthroline-inhibited exoprotease” value ([7]; 5 mM o-phenanthroline, 5 mM ZnCl2, 1:1 ion to inhibitor, 25° C., 15 minutes) is reported as “reactivated; also recorded: restored”, the “restoration of activity to EDTA-inactivated enzyme” value ([7]; 15 minutes) is reported as “partially restored” and the “effect of additional ions on activity of the native protease” value [7] is reported as “significantly increased”.

For `N[C@@H](CC(=O)O)C(=O)O` [aspartic acid], the “Enzyme activity (%) in cell free supernatant” value [1] was 60% and the activity [5, 10] was 79%.

In the case of `N.N.O=S(=O)(O)O` [(NH4)2 SO4, ammonium sulfate], the “Enzyme activity (%) in cell free supernatant” value [1] is reported as 100%, the “extracellular enzyme activity in cell-free growth media (in words)” value ([1]; exposed to the added substance) is reported as “no affect” and the “reduction in the synthesis of the exoprotease” value ([5]; 100 mM (NH4)2SO4) is reported as “approximately 50%”. The “Enzyme activity (%) in growth media” value [5, 11] was 56%.

In the case of `N[C@@H](CCC(=O)O)C(=O)O` [glutamic acid], the “Enzyme activity (%) in cell free supernatant” value [1] is reported as 52% and the activity at 100000 µM [5] is reported as 86%.

For `O=C(O)c1cc[c]([Hg][Cl])cc1` [pCMB, p-chloromercuribenzoic acid], the “protease activity after exposure to low concentration of pCMB (in words)” value ([6]; 10 mM pCMB, 25° C., 15 minutes) was “unaffected; also recorded: not affected” and the “protease activity after exposure to high concentration of pCMB (in words)” value ([6]; 25 mM pCMB, 25° C., 15 minutes) was “reduced”.

For `CC(C)C[C@H](N)C(=O)O` [leucine], the “Enzyme activity (%) in cell free supernatant” value [1] was 69%.

With `[Ca+2].[Cl-].[Cl-]` [Ca^2+, CaCl2] the “restoration of activity to EGTA-inhibited exoprotease” value ([7]; 80 mM EGTA, CaCl2 at 1:1 ion to inhibitor, 25° C., 15 minutes) was “reversible; also recorded: restored”, the “restoration of activity to EDTA-inactivated enzyme” value ([7]; 15 minutes) was “partially restored” and the “effect of additional ions on activity of the native protease” value [7] was “no detectable effect”.

For `CC(C)CC(NC(=O)C1OC1C(=O)O)C(=O)NCCCCNC(=N)N` (centres unmarked) [E64], the “exoprotease activity in additional assays, data not shown (in words)” value [6] was “not affected”.

For `NCC(=O)O` [glycine], the “Enzyme activity (%) in cell free supernatant” value [1] was 82% and the activity at 100000 µM [5, 11] was 69%.

For `O=C(O)CN(CCN(CC(=O)O)CC(=O)O)CC(=O)O` [EDTA, ethylenediaminetetra-acetic acid], the “EDTA concentration necessary to inhibit enzyme activity” value [6] was “greater than 10^-2 M” and the “protease activity after exposure to inhibitor (in words)” value ([6]; 25° C., 15 minutes) was “inhibited”.

B1: H. jannaschiana exoprotease: extracellular thermostable alkaline metalloprotease, approximately 80,000 daltons, produced by Hyphomonas jannaschiana VP3 (protein)
chain: EICRIVMDGHCEKQGDAECHDDQQSARPADQRINQDVEQVDDQFEEQGPGRNVCGINVFGS
With B1 the “isoelectric point pI” value [8] was 4.8, the optimal temperature ([8]; reacted at pH 9) was 45 °C and the “optimal pH” value ([8]; reaction temperature of about 60° to 65° C.) was “approximately 9.5”. The “activity remaining after boiling at 100° C. for 5 minutes” value [9] was “at least 41%”, the “decrease of exoprotease activity after incubation at 75° C. for 30 minutes” value ([9]; azocasein assay) was “about 40%” and the “reduction of extracellular protease activity after 100° C. (boiling) for 5 minutes” value ([9]; filtered culture supernatant) was 41%. For the same molecule, the “enzyme activity remaining after incubation at 75° C. for 30 minutes” value [9] was “at least 60%”, the “enzyme activity remaining after incubation at 75° C. for 30 minutes” value [9, 12] was “Over 60%” and the “proteolytic activity after boiling for 5 minutes (in words)” value [9, 12] was “failed to destroy”. For the same molecule, the “proteolytic activity after boiling for 5 minutes (in words)” value ([9]; listed as thermostable alkaline exoprotease) was “did not destroy”.
